Type in all cases: cell-based
For experiment [1], the target named is T1, hGIPR (Homo sapiens, UniProt P48546).
T1 sequence (P48546 22-466): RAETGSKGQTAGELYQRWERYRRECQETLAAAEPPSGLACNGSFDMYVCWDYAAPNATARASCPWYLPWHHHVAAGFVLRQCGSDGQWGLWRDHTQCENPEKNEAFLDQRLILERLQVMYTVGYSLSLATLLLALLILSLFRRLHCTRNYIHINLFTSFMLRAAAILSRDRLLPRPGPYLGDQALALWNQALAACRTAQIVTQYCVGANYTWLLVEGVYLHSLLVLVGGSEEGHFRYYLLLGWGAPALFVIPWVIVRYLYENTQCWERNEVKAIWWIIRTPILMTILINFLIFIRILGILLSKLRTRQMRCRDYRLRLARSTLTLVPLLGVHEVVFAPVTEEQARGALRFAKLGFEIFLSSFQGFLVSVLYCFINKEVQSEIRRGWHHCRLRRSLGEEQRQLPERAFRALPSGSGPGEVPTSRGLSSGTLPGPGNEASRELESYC
Nature of the experiment: Functional cAMP activity in the presence of 1% HSA. The settings on record: read-out: cAMP Rel EC50, hGIPR.

Experiment [2] has as its target T2, hGLP-1R (Homo sapiens, UniProt P43220). Briefly: Functional cAMP activity in the presence of 1% HSA. The settings on record: read-out: cAMP Rel EC50, hGLP-1R.
In experiment [3] the target is human GcgR (Homo sapiens, UniProt P47871). Briefly: Functional cAMP activity in the presence of 1% HSA. The settings on record: read-out: cAMP Rel EC50, hGcgR.
Chain of human GcgR (P47871 26-477): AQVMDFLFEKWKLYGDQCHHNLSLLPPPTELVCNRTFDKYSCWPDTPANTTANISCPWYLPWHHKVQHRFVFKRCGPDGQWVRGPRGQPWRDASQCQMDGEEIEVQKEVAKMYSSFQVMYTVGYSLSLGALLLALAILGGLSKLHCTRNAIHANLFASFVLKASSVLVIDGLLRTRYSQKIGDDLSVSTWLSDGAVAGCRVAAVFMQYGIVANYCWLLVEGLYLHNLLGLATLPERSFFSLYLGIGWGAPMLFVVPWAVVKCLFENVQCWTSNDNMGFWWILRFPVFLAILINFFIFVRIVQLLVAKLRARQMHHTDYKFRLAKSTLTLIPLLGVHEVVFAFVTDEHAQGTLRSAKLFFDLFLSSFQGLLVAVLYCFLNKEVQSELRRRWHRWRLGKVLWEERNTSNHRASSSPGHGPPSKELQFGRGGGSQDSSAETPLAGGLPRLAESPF
Experiment [4] has as its target T1, hGIPR. Nature of the experiment: Functional cAMP activation in the presence of 0.1% casein (no HSA). The settings on record: read-out: Relative cAMP EC50, hGIPR.
The target of experiment [5] is T2, hGLP-1R. Described as above. The settings on record: read-out: Relative cAMP EC50, hGLP-1R.
Experiment [6] deals with hGcgR (Homo sapiens, UniProt P47871). Described as above. The settings on record: read-out: Relative cAMP EC50, hGcgR.
Chain of hGcgR (P47871 26-477): as above
Setting [7] is: in the presence of 0.1% casein (no HSA), geometric mean.

Where two headings read alike, the source gives them in different places. Starred links: 1 amine or outer side, 2 acyl side, 3 side chain; linkers in the order of their positions; H or OH if unused. Non-standard residues stand in square brackets, D forms with d. Residues, ends and D or L forms follow the SMILES beside them. Groups on a side chain read outwards from the residue. No end group written: not given here. *: point of attachment. C20 diacid = O=C(O)CCCCCCCCCCCCCCCCCCC(=O)*; C18 diacid = O=C(O)CCCCCCCCCCCCCCCCC(=O)*; αMePhe(2-F) = C[C@](N)(Cc1ccccc1F)C(=O)O; γGlu = O=C(O)[C@H](CCC(=O)[*:2])N[*:1]; αMe4Pal = C[C@](N)(Cc1ccncc1)C(=O)O; αMeY = C[C@](N)(Cc1ccc(O)cc1)C(=O)O; 4Pal = N[C@@H](Cc1ccncc1)C(=O)O; αMeL = CC(C)C[C@](C)(N)C(=O)O; Orn = NCCC[C@H](N)C(=O)O; AEEA = NCCOCCOCC(=O)O; Aib = CC(C)(N)C(=O)O
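For Relative cAMP EC50, hGIPR in this document: intracellular cAMP rise after 30 min at 37 °C read by HTRF against a standard curve, scaled between buffer alone (0%) and top control ligand concentration (100%), four-parameter fit.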
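For Relative cAMP EC50, hGLP-1R in this document: intracellular cAMP rise after 30 min at 37 °C read by HTRF, normalized between buffer only (0%) and maximal control ligand (100%), four-parameter variable-slope fit.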
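For Relative cAMP EC50, hGcgR in this document: intracellular cAMP rise after 30 min at 37 °C, read by HTRF against a cAMP standard curve, scaled from buffer only (0%) to maximal control ligand response (100%).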

T2 sequence (P43220 24-463): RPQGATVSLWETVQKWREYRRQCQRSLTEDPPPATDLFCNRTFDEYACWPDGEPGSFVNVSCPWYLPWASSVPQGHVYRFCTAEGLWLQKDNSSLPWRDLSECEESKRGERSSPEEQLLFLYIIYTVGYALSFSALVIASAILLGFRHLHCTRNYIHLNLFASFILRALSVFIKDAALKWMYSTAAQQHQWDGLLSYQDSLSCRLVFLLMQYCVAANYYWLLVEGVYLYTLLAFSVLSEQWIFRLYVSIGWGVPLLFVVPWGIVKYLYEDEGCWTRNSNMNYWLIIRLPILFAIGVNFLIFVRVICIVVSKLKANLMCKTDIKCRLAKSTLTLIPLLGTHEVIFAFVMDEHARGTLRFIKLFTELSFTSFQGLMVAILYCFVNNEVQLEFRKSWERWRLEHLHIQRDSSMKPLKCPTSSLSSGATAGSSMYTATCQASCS

Broadly, the EC50 is the concentration that produces a half-maximal response. Take “H-Y[Aib]QGTFTSD[4Pal]S[Orn][αMeL]LD[Orn]K([γGlu-γGlu-C18 diacid])AQ[αMe4Pal]AFIEYLIAGGPSSGEPPPSGE-NH2 [Example 983]”: the EC50 in experiment [1] was found to be 19.4 nM; in experiment [2], 207 nM; in experiment [3], 576 nM; in experiment [4] (setting [7]) it was 0.289 nM; in experiment [5] (setting [7]), 2.35 nM; in experiment [6] (setting [7]) it was 4.75 nM.

As to “H-Y[Aib]QGTFTSD[4Pal]SQ[αMeL]LD[Orn]K([AEEA-γGlu-C18 diacid])AQ[αMe4Pal]AFI[dE][αMeY]LIEGGPSSGAPPPSGSEE-NH2 [Example 1042]”, the EC50 in experiment [1] came out at 84.8 nM; in experiment [2], 642 nM; in experiment [3], 1890 nM; in experiment [4] (setting [7]) it was 1.3 nM; in experiment [5] (setting [7]) it was 10.3 nM; in experiment [6] (setting [7]), 27.5 nM.

For the compound “H-Y[Aib]QGTFTSD[4Pal]S[Orn][αMeL]LD[Orn]K([γGlu-γGlu-C18 diacid])AQ[αMe4Pal][Orn]FIEYLLAGGPSSGAPPPSGSEE-NH2 [Example 1004]”, the 50% effective concentration (EC50) in experiment [1] was 35.4 nM; in experiment [2], 973 nM; in experiment [3] it was 237 nM; in experiment [4] (setting [7]) it was 0.519 nM; in experiment [5] (setting [7]), 9.34 nM; in experiment [6] (setting [7]) it was 2.67 nM.

On to “Y[Aib]QGTFTSDFSK[αMeL]LDKK([AEEA-γGlu-C20 diacid])AQ[Aib]AFIQYLLAGGPSSGEPPPSEG-NH2 [Example 27]”, for which the EC50 in experiment [1] was determined as 72.3 nM; in experiment [2], 464 nM; in experiment [3], 1180 nM; in experiment [4] (setting [7]) it was 0.41 nM; in experiment [5] (setting [7]), 2.33 nM; in experiment [6] (setting [7]), 8.91 nM.

Consider “H-Y[Aib]QGTFTSD[4Pal]SK[αMeL]LDKK([γGlu-γGlu-C18 diacid])AQ[Aib]AFIEYLIE[Aib]GPSSGAPPPSGSEEE-NH2 [Example 906]”, for which the EC50 in experiment [1] was determined as 15.4 nM; in experiment [2], 236 nM; in experiment [3], 1170 nM; in experiment [4] (setting [7]), 0.212 nM; in experiment [5] (setting [7]), 2.48 nM; in experiment [6] (setting [7]) it was 14.7 nM.

For “H-Y[Aib]QGTFTSD[4Pal]SQ[αMeL]LDKK([AEEA-γGlu-C18 diacid])AQ[Aib]AFIE[αMeY]LLEGGPSSGAPPPSGS-NH2 [Example 910]”, the EC50 in experiment [1] was 25.7 nM; in experiment [2], 239 nM; in experiment [3] it was 2640 nM; in experiment [4] (setting [7]), 0.111 nM; in experiment [5] (setting [7]), 1.49 nM; in experiment [6] (setting [7]) it was 9.76 nM.

Consider “H-Y[Aib]QGTFTSD[4Pal]SQ[αMeL]LDKK([AEEA-γGlu-C18 diacid])AQ[αMe4Pal]AFIE[αMe4Pal]LIE[Aib]GPSSGAPPPSGTGE-NH2 [Example 1117]”, for which the concentration giving a half-maximal response (EC50) in experiment [1] was 8.31 nM; in experiment [2] it was 237 nM; in experiment [3], 355 nM; in experiment [4] (setting [7]), 0.124 nM; in experiment [5] (setting [7]), 3.51 nM; in experiment [6] (setting [7]), 4.93 nM.

Turning to `CC[C@H](C)[C@H](NC(=O)[C@H](Cc1ccccc1)NC(=O)[C@H](C)NC(=O)C(C)(C)NC(=O)[C@H](CCC(N)=O)NC(=O)[C@H](C)NC(=O)[C@H](CCCCNC(=O)CC[C@H](NC(=O)CC[C@H](NC(=O)CCCCCCCCCCCCCCCCC(=O)O)C(=O)O)C(=O)O)NC(=O)[C@H](CCCN)NC(=O)[C@H](CC(=O)O)NC(=O)[C@H](CC(C)C)NC(=O)[C@H](CC(C)C)NC(=O)[C@@H](NC(=O)[C@H](CO)NC(=O)[C@H](Cc1ccc(O)cc1)NC(=O)[C@H](CC(=O)O)NC(=O)[C@H](CO)NC(=O)[C@@H](NC(=O)[C@](C)(Cc1ccccc1F)NC(=O)[C@@H](NC(=O)CNC(=O)[C@H](CCC(N)=O)NC(=O)C(C)(C)NC(=O)[C@@H](N)Cc1ccc(O)cc1)[C@@H](C)O)[C@@H](C)O)[C@@H](C)CC)C(=O)N[C@@H](CCC(=O)O)C(=O)N[C@@H](Cc1ccc(O)cc1)C(=O)N[C@@H](CC(C)C)C(=O)N[C@@H](CCC(=O)O)C(=O)N[C@@H](CCC(=O)O)C(=O)NCC(=O)NCC(=O)N1CCC[C@H]1C(=O)N[C@@H](CO)C(=O)N[C@@H](CO)C(=O)NCC(=O)N[C@@H](C)C(=O)N1CCC[C@H]1C(=O)N1CCC[C@H]1C(=O)N1CCC[C@H]1C(=O)N[C@@H](CO)C(N)=O` [Example 414] (H-Y[Aib]QGT[αMePhe(2-F)]TSDYSILLD[Orn]K([γGlu-γGlu-C18 diacid])AQ[Aib]AFIEYLEEGGPSSGAPPPS-NH2), the EC50 in experiment [1] came to 14.9 nM; in experiment [2], 32.8 nM; in experiment [3] it was 487 nM; in experiment [4], 0.0303 nM; in experiment [5], 0.176 nM; in experiment [6] it was 4.56 nM.

On to “H-Y[Aib]QGTFTSD[4Pal]SK[αMeL]LDKK([AEEA-γGlu-C18 diacid])AQ[Aib]AFIEYLIE[Aib]GPSSGAPPPSGS-NH2 [Example 801]”, for which the EC50 in experiment [1] stood at 18.1 nM; in experiment [2], 133 nM; in experiment [3], 1200 nM; in experiment [4] (setting [7]), 0.147 nM; in experiment [5] (setting [7]), 0.938 nM; in experiment [6] (setting [7]), 5.51 nM.

`CC[C@H](C)[C@H](NC(=O)[C@H](Cc1ccccc1)NC(=O)[C@H](C)NC(=O)C(C)(C)NC(=O)[C@H](CCC(N)=O)NC(=O)[C@H](C)NC(=O)[C@H](CCCCNC(=O)COCCOCCNC(=O)CC[C@H](NC(=O)CCCCCCCCCCCCCCCCC(=O)O)C(=O)O)NC(=O)[C@H](CCCCN)NC(=O)[C@H](CC(=O)O)NC(=O)[C@H](CC(C)C)NC(=O)[C@H](CC(C)C)NC(=O)[C@H](CO)NC(=O)[C@H](CO)NC(=O)[C@H](Cc1ccc(O)cc1)NC(=O)[C@H](CC(=O)O)NC(=O)[C@H](CO)NC(=O)[C@@H](NC(=O)[C@](C)(Cc1ccccc1F)NC(=O)[C@@H](NC(=O)CNC(=O)[C@H](CCC(N)=O)NC(=O)C(C)(C)NC(=O)[C@@H](N)Cc1ccc(O)cc1)[C@@H](C)O)[C@@H](C)O)C(=O)N[C@@H](CCC(=O)O)C(=O)N[C@@H](Cc1ccc(O)cc1)C(=O)N[C@@H](CC(C)C)C(=O)N[C@@H](CCC(=O)O)C(=O)N[C@@H](CCC(=O)O)C(=O)NCC(=O)NCC(=O)N1CCC[C@H]1C(=O)N[C@@H](CO)C(=O)N[C@@H](CO)C(=O)NCC(=O)N[C@@H](C)C(=O)N1CCC[C@H]1C(=O)N1CCC[C@H]1C(=O)N1CCC[C@H]1C(=O)N[C@@H](CO)C(N)=O` [Example 409] (H-Y[Aib]QGT[αMePhe(2-F)]TSDYSSLLDKK([AEEA-γGlu-C18 diacid])AQ[Aib]AFIEYLEEGGPSSGAPPPS-NH2): the EC50 in experiment [1] came out at 66.6 nM; in experiment [2] it was 41.7 nM; in experiment [3], 1190 nM; in experiment [4], 0.363 nM; in experiment [5], 0.484 nM; in experiment [6], 7.92 nM.

As to “H-Y[Aib]QGT[αMePhe(2-F)]TSDYSKLLDEIAQK([AEEA-γGlu-C20 diacid])AFIEYLLEGGPSSGEPPPSEG-NH2 [Example 303]”, the concentration giving a half-maximal response (EC50) in experiment [1] stood at 44.7 nM; in experiment [2], 257 nM; in experiment [3] it was 9950 nM; in experiment [4] (setting [7]), 0.116 nM; in experiment [5] (setting [7]) it was 1.13 nM; in experiment [6] (setting [7]), 6.1 nM.

With “H-Y[Aib]QGTFTSD[4Pal]SQ[αMeL]LDKK([Glu-γGlu-Glu-C18 diacid])AQ[αMe4Pal]AFIEYLIE[Aib]GPSSGAPPPSGS-NH2 [Example 896]”, the EC50 is 16.8 nM in experiment [1]; 535 nM in experiment [2]; 1110 nM in experiment [3]; 0.12 nM in experiment [4] (setting [7]); 4.64 nM in experiment [5] (setting [7]); 10.6 nM in experiment [6] (setting [7]).

Consider “H-Y[Aib]QGTFTSD[4Pal]SQ[αMeL]LDKK([AEEA-γGlu-C18 diacid])AQ[Aib]AFIEYLLE[dA]GPSS[Aib]APPPSGT-NH2 [Example 824]”, for which the EC50 in experiment [1] was found to be 28.9 nM; in experiment [2], 343 nM; in experiment [3], 1110 nM; in experiment [4] (setting [7]) it was 0.123 nM; in experiment [5] (setting [7]), 2.43 nM; in experiment [6] (setting [7]), 7.92 nM.

In the case of “H-Y[Aib]QGT[αMePhe(2-F)]TSD[4Pal]SI[αMeL]LD[Orn]K([AEEA-γGlu-C18 diacid])AQ[αMe4Pal][Orn]FI[dE][αMeY]LIEGGPSSGEPPPESEE-NH2 [Example 753]”, the EC50 in experiment [1] amounted to 1.86 nM; in experiment [2] it was 38.2 nM; in experiment [3], 351 nM; in experiment [4] it was 0.0127 nM; in experiment [5], 0.271 nM; in experiment [6], 2.7 nM.

In the case of “H-Y[Aib]QGTFTSDFS[Orn][αMeL]LDKK([γGlu-AEEA-γGlu-C18 diacid])AQ[Aib]AFIEYLLE[Aib]GESSGAPPPSGS-NH2 [Example 244]”, the concentration giving a half-maximal response (EC50) in experiment [1] is 18.8 nM; in experiment [2] it was 645 nM; in experiment [3], 1230 nM; in experiment [4] (setting [7]) it was 0.0972 nM; in experiment [5] (setting [7]), 7.68 nM; in experiment [6] (setting [7]) it was 4.81 nM.
